Results as given in US7598417B2, “Substituted fluoroethyl ureas as alpha 2 adrenergic agents” (Allergan, Inc., priority 2007, dated 2009).
pEC50: −log10 of the molar value.

Legend:
Format in all cases: cell-based
alpha2B receptor = biological target: T1, alpha2B receptor (Homo sapiens, UniProt P18089); assay: Receptor Selection and Amplification Technology (RSAT) assay, alpha2B; settings: for pEC50: RSAT, NIH-3T3 cells cotransfected with receptor and Gq/i5, not active = not active at concentrations less than 10 micromolar, read-out: Alpha 2B EC50; for Alpha 2B IA (intrinsic activity): ratio of maximal effect of the drug to maximal effect of standard full agonist brimonidine (UK14304)
T1 construct: expressed in transfected cells; host or cells: NIH-3T3
T1 sequence (P18089 1-450): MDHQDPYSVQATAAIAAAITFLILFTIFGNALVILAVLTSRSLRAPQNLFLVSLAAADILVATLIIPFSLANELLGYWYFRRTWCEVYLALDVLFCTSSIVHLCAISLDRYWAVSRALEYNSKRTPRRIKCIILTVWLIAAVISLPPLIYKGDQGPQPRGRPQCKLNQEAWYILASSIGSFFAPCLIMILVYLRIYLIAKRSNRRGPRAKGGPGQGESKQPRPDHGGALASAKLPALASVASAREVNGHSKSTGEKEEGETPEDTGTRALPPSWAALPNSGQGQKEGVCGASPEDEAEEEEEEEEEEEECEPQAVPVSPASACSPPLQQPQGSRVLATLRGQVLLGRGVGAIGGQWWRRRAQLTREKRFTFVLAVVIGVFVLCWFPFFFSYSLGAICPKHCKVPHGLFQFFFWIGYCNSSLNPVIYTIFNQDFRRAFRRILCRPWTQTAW
Protocol: (§1) Receptor Selection and Amplification Technology (RSAT) Assay
(§2) The RSAT assay measures a receptor-mediated loss of contact inhibition that results in selective proliferation of receptor-containing cells in a mixed population of confluent cells. The increase in cell number is assessed with an appropriate transfected marker gene such as β-galactosidase, the activity of which can be easily measured in a 96-well format. Receptors that activate the G protein, Gq, elicit this response. Alpha2 receptors, which normally couple to Gi, activate the RSAT response when coexpressed with a hybrid Gq protein that has a Gi receptor recognition domain, called Gq/i5.
(§3) NIH-3T3 cells are plated at a density of 2×10^6 cells in 15 cm dishes and maintained in Dulbecco's modified Eagle's medium supplemented with 10% calf serum. One day later, cells are cotransfected by calcium phosphate precipitation with mammalian expression plasmids encoding p-SV-β-galactosidase (5-10 μg), receptor (1-2 μg) and G protein (1-2 μg). 40 μg salmon sperm DNA may also be included in the transfection mixture. Fresh media is added on the following day and 1-2 days later, cells are harvested and frozen in 50 assay aliquots. Cells are thawed and 100 μl added to 100 μl aliquots of various concentrations of drugs in triplicate in 96-well dishes. Incubations continue 72-96 hr at 37° C. After washing with phosphate-buffered saline, β-galactosidase enzyme activity is determined by adding 200 μl of the chromogenic substrate (consisting of 3.5 mM o-nitrophenyl-β-D-galactopyranoside and 0.5% nonidet P-40 in phosphate buffered saline), incubating overnight at 30° C. and measuring optical density at 420 nm. The absorbance is a measure of enzyme activity, which depends on cell number and reflects a receptor-mediated cell proliferation. The efficacy or intrinsic activity is calculated as a ratio of the maximal effect of the drug to the maximal effect of a standard full agonist for each receptor subtype. Brimonidine, also called UK14304, the chemical structure of which is shown below, is used as the standard agonist for the alpha2A, alpha2B and alpha2C receptors. The EC50 is the concentration at which the drug effect is half of its maximal effect.
The results of the RSAT assay with several exemplary compounds of the invention are disclosed in Table 1 above together with the chemical formulas of these exemplary compounds. EC50 values are nanomolar. NA stands for “not active” at concentrations less than 10 micromolar. IA stands for “intrinsic activity.”

alpha2C receptor = biological target: T2, alpha2C receptor (Homo sapiens, UniProt P18825); assay: Receptor Selection and Amplification Technology (RSAT) assay, alpha2C; settings: for pEC50 / Alpha 2C EC50: RSAT, NIH-3T3 cells cotransfected with receptor and Gq/i5, not active = not active at concentrations less than 10 micromolar; for pEC50: read-out: Alpha 2C EC50; for Alpha 2C IA (intrinsic activity): ratio of maximal effect of the drug to maximal effect of standard full agonist brimonidine (UK14304)
T2 construct: expressed in transfected cells; host or cells: NIH-3T3
T2 sequence (P18825 1-462): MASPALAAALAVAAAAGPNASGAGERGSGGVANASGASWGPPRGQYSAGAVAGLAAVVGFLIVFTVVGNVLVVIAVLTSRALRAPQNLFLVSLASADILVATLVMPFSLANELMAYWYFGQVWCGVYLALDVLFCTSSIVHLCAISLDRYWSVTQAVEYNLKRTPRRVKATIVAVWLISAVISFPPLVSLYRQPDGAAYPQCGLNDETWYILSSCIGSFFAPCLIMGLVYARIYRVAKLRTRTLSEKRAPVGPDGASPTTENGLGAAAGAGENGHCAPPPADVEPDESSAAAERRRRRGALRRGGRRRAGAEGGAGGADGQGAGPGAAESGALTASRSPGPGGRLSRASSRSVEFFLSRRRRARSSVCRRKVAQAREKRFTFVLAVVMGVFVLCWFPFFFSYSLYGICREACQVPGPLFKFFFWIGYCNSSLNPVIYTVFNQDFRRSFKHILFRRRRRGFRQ
Protocol: as §1, §2, §3
(§4) EC50 values are nanomolar. NA stands for “not active” at concentrations less than 10 micromolar. IA stands for “intrinsic activity.”

alpha2A receptor = biological target: T3, alpha2A receptor (Homo sapiens, UniProt P08913); assay: Receptor Selection and Amplification Technology (RSAT) assay, alpha2A; settings: for Alpha 2A EC50 / pEC50: RSAT, NIH-3T3 cells cotransfected with receptor and Gq/i5, not active = not active at concentrations less than 10 micromolar; for pEC50: read-out: Alpha 2A EC50; for Alpha 2A IA (intrinsic activity): ratio of maximal effect of the drug to maximal effect of standard full agonist brimonidine (UK14304)
T3 construct: expressed in transfected cells; host or cells: NIH-3T3
T3 sequence (P08913 1-465): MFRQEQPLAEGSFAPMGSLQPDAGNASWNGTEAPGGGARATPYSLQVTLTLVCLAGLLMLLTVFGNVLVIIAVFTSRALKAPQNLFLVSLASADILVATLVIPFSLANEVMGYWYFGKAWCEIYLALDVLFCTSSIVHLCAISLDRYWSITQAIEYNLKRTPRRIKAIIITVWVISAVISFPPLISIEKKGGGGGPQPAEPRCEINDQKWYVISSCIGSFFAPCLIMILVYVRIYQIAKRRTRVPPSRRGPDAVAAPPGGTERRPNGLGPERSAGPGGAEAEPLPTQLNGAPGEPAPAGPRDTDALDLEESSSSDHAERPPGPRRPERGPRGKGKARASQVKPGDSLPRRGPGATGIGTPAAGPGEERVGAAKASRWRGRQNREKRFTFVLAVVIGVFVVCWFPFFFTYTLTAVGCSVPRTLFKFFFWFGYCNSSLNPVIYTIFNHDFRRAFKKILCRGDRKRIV
Protocol: as §1, §2, §3, §4

pEC50 (alpha2B receptor)	Alpha 2B IA (intrinsic activity) (alpha2B receptor)	pEC50 (alpha2C receptor)	Alpha 2C IA (intrinsic activity) (alpha2C receptor)	Alpha 2A EC50 (alpha2A receptor)	Alpha 2C EC50 (alpha2C receptor)	pEC50 (alpha2A receptor)	Alpha 2A IA (intrinsic activity) (alpha2A receptor)	SMILES
7.13	0.9	6.34	0.58	not active				CC1=CCCCC1NC(=O)NCCF (centres unmarked)
8.06	1.08	7.02	0.55			7.22	0.41	O=C(NCCF)NC1CCc2cccc(F)c21 (centres unmarked)
5.59	0.81	5.44	0.32	not active				CC1=C(C=O)CCCC1NC(=O)NCCF (centres unmarked)
5.94	0.61	6.04	0.47	not active				CC1=CC(NC(=O)NCCF)CC1 (centres unmarked)
7.57	0.6	6.71	0.62			6.72	0.43	Cc1cccc2c1C(NC(=O)NCCF)CC2 (centres unmarked)
8.02	0.96	7.14	0.73			6.73	0.53	O=C(NCCF)NC1CCc2c(O)cccc21 (centres unmarked)
6.19	0.64			not active	not active			Cc1ccc2c(c1C)C(NC(=O)NCCF)CC2 (centres unmarked)
6.20	0.6			not active	not active			Cc1ccc2c(c1)CC(NC(=O)NCCF)C2 (centres unmarked)
5.66	0.93			not active	not active			O=C(NCCF)NC1Cc2ccc(F)cc2C1 (centres unmarked)
6.52	0.52	6.66	0.45	not active				O=C(NCCF)NC1CCc2ccc(Br)cc21 (centres unmarked)
6.42	0.76	< 5.70	0.38	not active				O=C(NCCF)NCC1CCc2ccccc21 (centres unmarked)
7.71	0.76	6.29	0.52	not active				CC1=C(C)C(NC(=O)NCCF)CCC1 (centres unmarked)
7.68	0.89	6.55	0.45			6.48	0.34	CC1CCC(NC(=O)NCCF)c2ccccc21 (centres unmarked)
6.54	0.84	6.06	0.51			5.63	0.37	COc1cccc2c1CCCC2NC(=O)NCCF (centres unmarked)
8.25	1.3	6.91	1.03			7.32	0.41	Cc1cccc2c1CCCC2NC(=O)NCCF (centres unmarked)
5.58	0.31	5.90	0.31	not active				O=C(NCCF)NC1CCc2cc(Br)ccc21 (centres unmarked)
7.14	1.0	7.53	0.43	not active				O=C(NCCF)NC1CCc2ccc(Cl)c(Cl)c21 (centres unmarked)
6.25	0.55	5.74	0.61			6.16	0.36	O=C(NCCF)N[C@@H]1CCc2ccccc21
7.49	0.88	6.09	0.31	not active				Cc1ccc2c(c1)C(NC(=O)NCCF)CC2 (centres unmarked)
7.69	0.91	6.69	0.53			6.84	0.41	O=C(NCCF)NC1CCCc2c(Br)cccc21 (centres unmarked)
8.80	1.0	7.76	0.47	not active				O=C(NCCF)N[C@H]1CCc2ccccc21
7.00	0.98	6.34	0.4	not active				Cc1cccc2c1CC(NC(=O)NCCF)C2 (centres unmarked)
7.74	0.92	6.61	0.48	not active				O=C(NCCF)NC1Cc2ccccc2C1
6.61	0.71			not active	not active			Cc1ccc2c(c1)CCC2NC(=O)NCCF (centres unmarked)
6.67	0.65	6.01	0.5			6.27	0.3	O=C(NCCF)NC1CCCCc2ccccc21 (centres unmarked)
7.96	0.96	6.77	0.43	not active				CC1CC(NC(=O)NCCF)c2ccccc21 (centres unmarked)
6.08	0.78			not active	not active			COc1ccc2c(c1)C(NC(=O)NCCF)CCC2 (centres unmarked)

SMILES	pEC50 (alpha2B receptor)	Alpha 2B IA (intrinsic activity) (alpha2B receptor)	pEC50 (alpha2C receptor)	Alpha 2C IA (intrinsic activity) (alpha2C receptor)	Alpha 2A EC50 (alpha2A receptor)	Alpha 2C EC50 (alpha2C receptor)	pEC50 (alpha2A receptor)	Alpha 2A IA (intrinsic activity) (alpha2A receptor)
O=C(NCCF)NC1CCc2cccnc21 (centres unmarked)	5.51	0.81			not active	not active		
